Test results published in patent US20140163073A1, “Small Molecule Inhibitors of P-type ATPases” (priority 2012, published 2014).
In brackets after ≈: the same amount, converted by molar mass. Entries after “also recorded” stand apart in the source; their conditions may differ. Where two headings read alike, the source gives them in different places.

Experiments:
[1] = target: T1, ATP7A (Mus musculus, UniProt Q64430); experiment: Cu+2-stimulated ATP7A trafficking, co-localization assay; format: cell-based; conditions: B16F10 cells
T1 construct: endogenous in cells; host or cells: B16F10 mouse melanoma cells
T1 sequence (Q64430 1-1491): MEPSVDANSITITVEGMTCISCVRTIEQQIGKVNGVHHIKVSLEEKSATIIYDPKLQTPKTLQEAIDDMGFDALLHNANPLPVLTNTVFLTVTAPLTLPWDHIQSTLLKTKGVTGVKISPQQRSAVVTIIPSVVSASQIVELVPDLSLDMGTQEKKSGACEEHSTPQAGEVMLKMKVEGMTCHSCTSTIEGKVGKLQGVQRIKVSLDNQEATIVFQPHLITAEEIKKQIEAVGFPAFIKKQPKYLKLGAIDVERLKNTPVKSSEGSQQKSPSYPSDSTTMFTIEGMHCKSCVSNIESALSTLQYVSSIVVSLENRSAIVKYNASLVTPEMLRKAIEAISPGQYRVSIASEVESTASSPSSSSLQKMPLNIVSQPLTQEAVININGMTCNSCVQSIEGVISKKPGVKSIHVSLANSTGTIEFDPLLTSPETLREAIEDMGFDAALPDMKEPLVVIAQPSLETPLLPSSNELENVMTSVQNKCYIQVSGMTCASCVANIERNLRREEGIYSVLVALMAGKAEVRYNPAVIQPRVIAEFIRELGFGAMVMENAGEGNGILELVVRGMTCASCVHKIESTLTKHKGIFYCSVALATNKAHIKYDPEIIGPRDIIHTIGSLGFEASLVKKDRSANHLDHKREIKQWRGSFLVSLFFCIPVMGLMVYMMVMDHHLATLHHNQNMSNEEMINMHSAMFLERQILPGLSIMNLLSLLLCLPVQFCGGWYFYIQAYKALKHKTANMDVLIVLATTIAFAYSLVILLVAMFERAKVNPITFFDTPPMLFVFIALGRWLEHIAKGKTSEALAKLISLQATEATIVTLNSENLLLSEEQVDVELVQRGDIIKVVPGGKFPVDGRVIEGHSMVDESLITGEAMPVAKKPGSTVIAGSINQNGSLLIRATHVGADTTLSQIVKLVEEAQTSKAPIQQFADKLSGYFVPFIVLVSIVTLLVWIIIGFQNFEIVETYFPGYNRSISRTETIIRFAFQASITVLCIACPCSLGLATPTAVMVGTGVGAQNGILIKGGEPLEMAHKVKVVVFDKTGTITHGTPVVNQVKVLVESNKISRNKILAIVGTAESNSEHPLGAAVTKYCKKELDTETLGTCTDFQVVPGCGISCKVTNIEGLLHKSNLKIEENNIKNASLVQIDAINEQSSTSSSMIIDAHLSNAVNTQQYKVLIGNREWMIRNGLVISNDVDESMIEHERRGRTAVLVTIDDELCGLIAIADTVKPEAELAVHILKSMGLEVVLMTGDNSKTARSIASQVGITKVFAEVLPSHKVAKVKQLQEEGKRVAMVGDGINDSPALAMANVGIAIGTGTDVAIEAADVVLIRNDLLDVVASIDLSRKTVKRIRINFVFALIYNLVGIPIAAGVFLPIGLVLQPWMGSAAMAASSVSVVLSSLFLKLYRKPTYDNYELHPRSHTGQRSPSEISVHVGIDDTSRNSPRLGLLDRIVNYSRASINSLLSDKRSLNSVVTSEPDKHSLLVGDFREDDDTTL
Protocol: Cells were incubated for 16 hours with […] omeprazole or the vehicle (DMSO) and then treated with Cu+2, or not treated, to determine if omeprazole could inhibit Cu+2-stimulated (CuCl2) ATP7A trafficking. […] ATP7A is seen as green following immunofluorescence protocols previously described (Petris et al., 1999), the Golgi stained red, and the nucleus stained blue. […]
This is consistent with the idea that omeprazole is metabolized to generate an inhibitory metabolite (such as hydroxy-omeprazole or perhaps the sulfonated metabolite) which then interacts with newly synthesized tyrosinase. This finding also is consistent with the hypothesis that omeprazole inhibits metallation of newly synthesized tyrosinase via ATP7A, rather than functioning as a direct inhibitor of tyrosinase per se; that is, a 72 hour incubation in omeprazole appears to be required so that preexisting tyrosinase can be turned over, allowing the inhibitory effect of omeprazole to be detected on newly synthesized tyrosinase.

[2] = tested on: melanocytes; experiment: Inhibition of melanogenesis / pigment development in cultured melanocytes; format: cell-based
[3] = tested on: normal human epidermal melanocytes; experiment: Melanogenesis and melanin content in normal human epidermal melanocytes; format: cell-based
Source text: (§1) PPIs had been known to function in the parietal cells to block the production of stomach acid by binding to at least one cysteine residue of the gastric proton pump, ATP4A, to thus effect long-lasting, semi-irreversible inactivation of the ATP4A. In order to bind to the ATPase, the PPI must be in its active form, and the PPI requires an acidic environment to undergo rearrangement to its active form.

[4] = tested on: tyrosinase, MITF, TRP-2, Pme117 mRNA; experiment: mRNA levels of melanogenesis related proteins by RT-PCR in B16F10 mouse melanoma cells; format: cell-based
Source text: The inventors next examined the effect of omeprazole on tyrosinase, the principal, rate-limiting enzyme in melanin synthesis.

[5] = pH below 0.8; cited from earlier work
[6] = tested on: reconstructed human skin model; experiment: Reconstructed human skin model; format: cell-based
Source text: as §1

Structure (SMILES) | inhibition of Cu+2-stimulated ATP7A re-localization ([1]; 100 μM for 16 hours, then 10 μM Cu+2 for 3 hours) | ATP7A trafficking without Cu+2 stimulation ([1]; SCH-28080, absence of Cu+2) | inhibition of melanogenesis [2] | inhibition of melanogenesis ([2]; listed as SCH-20808) | cytotoxicity [3] | EC50 ([3]; Melanocyte, read-out: EC50 of melanogenesis inhibition) [µg/mL] | concentration that inhibits melanogenesis ([2]; cultured melanocytes) [µg/mL] | tyrosinase mRNA levels [4] | reorganization (stability) [5] | concentration at which effective [6] [µg/mL]
Cc1nc2c(OCc3ccccc3)cccn2c1CC#N [SCH-28080] | inhibition; also recorded: very potent inhibitor | no effect on ATP7A trafficking | also inhibited melanogenesis | strongly inhibited melanogenesis |  |  |  |  |  | 
COc1ccc2[nH]c([S+]([O-])Cc3ncc(C)c(OC)c3C)nc2c1 (centres unmarked) [omeprazole, 5- or 6-methoxy-2-{[(4-methoxy-3,5-dimethylpyridin-2-yl)methyl]sulfinyl}-1H-benzimidazole] |  |  |  |  | low cytotoxicity | 15 (≈ 43.4 µM) | 5 to 50 | no effect | quickly reorganizes into the sulfonamide analog | 50
C[C@@H]1O[C@@H](O[C@H]2C[C@@H](O)[C@]3(CO)[C@H]4[C@H](O)C[C@]5(C)[C@@H](C6=CC(=O)OC6)CC[C@]5(O)[C@@H]4CC[C@]3(O)C2)[C@H](O)[C@H](O)[C@H]1O [ouabain] |  |  | does not inhibit melanogenesis |  |  |  |  |  |  | 
